Our source for the Activity and IC50 values is ChEMBL document CHEMBL1141668, “Synthesis and biological activity of imidazopyridine anticoccidial agents: Part II” (Eur J Med Chem, 2008).

The subject of assay [1] is Eimeria maxima. Description: Anticoccidial activity against Eimeria maxima in chickens assessed as reduction of oocysts at 4 ppm measured after 8 days by ExMAC assay relative to untreated control. Also on record: scale not given: the % may be the effect or the level left. In kind it is functional.
For assay [2], the system named is Eimeria maxima. The assay is described as follows: Anticoccidial activity against Eimeria maxima in chickens assessed as reduction of oocysts at 1 ppm measured after 8 days by ExMAC assay relative to untreated control. In kind it is functional. Also on record: scale not given: the % may be the effect or the level left.
For assay [3], the system named is Eimeria acervulina. The assay is described as follows: Anticoccidial activity against Eimeria acervulina in chickens assessed as reduction of oocysts at 2 ppm measured after 8 days by ExMAC assay relative to untreated control. The assay is classed as functional. Also on record: scale not given: the % may be the effect or the level left.
Assay [4] has as its system Eimeria mitis. The assay is described as follows: Anticoccidial activity against Eimeria mitis in chickens assessed as reduction of oocysts at 1 ppm measured after 8 days by ExMAC assay relative to untreated control. Also on record: scale not given: the % may be the effect or the level left. In kind it is functional.
The test system of assay [5] is Eimeria tenella. The assay is described as follows: Anticoccidial activity against Eimeria tenella in chickens assessed as reduction of oocysts at 1 ppm measured after 8 days by ExMAC assay relative to untreated control. In kind it is functional. Also on record: scale not given: the % may be the effect or the level left.
Assay [6] deals with Eimeria tenella. The assay is described as follows: Anticoccidial activity against Eimeria tenella in chickens assessed as reduction of oocysts at 2 ppm measured after 8 days by ExMAC assay relative to untreated control. Also on record: scale not given: the % may be the effect or the level left. The assay is classed as functional.
The subject of assay [7] is Eimeria mitis. Description: Anticoccidial activity against Eimeria mitis in chickens assessed as reduction of oocysts at 2 ppm measured after 8 days by ExMAC assay relative to untreated control. Also on record: scale not given: the % may be the effect or the level left. In kind it is functional.
Assay [8] concerns Eimeria mitis. The assay is described as follows: Anticoccidial activity against Eimeria mitis in chickens assessed as reduction of oocysts at 4 ppm measured after 8 days by ExMAC assay relative to untreated control. The assay is classed as functional. Also on record: scale not given: the % may be the effect or the level left.
Assay [9] concerns Eimeria tenella. Description: Anticoccidial activity against Eimeria tenella in chickens assessed as reduction of oocysts at 4 ppm measured after 8 days by ExMAC assay relative to untreated control. In kind it is functional. Also on record: scale not given: the % may be the effect or the level left.
For assay [10], the system named is Eimeria maxima. The assay is described as follows: Anticoccidial activity against Eimeria maxima in chickens assessed as reduction of oocysts at 2 ppm measured after 8 days by ExMAC assay relative to untreated control. The assay is classed as functional. Also on record: scale not given: the % may be the effect or the level left.
Assay [11] relates to Eimeria acervulina. The assay is described as follows: Anticoccidial activity against Eimeria acervulina in chickens assessed as reduction of oocysts at 1 ppm measured after 8 days by ExMAC assay relative to untreated control. In kind it is functional. Also on record: scale not given: the % may be the effect or the level left.
Assay [12] has as its target cGMP-dependent protein kinase (Eimeria tenella, UniProt Q8MMZ8). Description: Inhibition of Eimeria tenella cGMP-dependent protein kinase.
Assay [13] concerns Eimeria acervulina. Description: Anticoccidial activity against Eimeria acervulina in chickens assessed as reduction of oocysts at 4 ppm measured after 8 days by ExMAC assay relative to untreated control. The assay is classed as functional. Also on record: scale not given: the % may be the effect or the level left.
Assay [14] concerns Eimeria maxima. Description: Anticoccidial activity against Eimeria maxima in chickens assessed as reduction of oocysts at 12 ppm measured after 8 days by ExMAC assay relative to untreated control. In kind it is functional. Also on record: scale not given: the % may be the effect or the level left.
In assay [15] the test system is Eimeria tenella. The assay is described as follows: Anticoccidial activity against Eimeria tenella in chickens assessed as reduction of oocysts at 6 ppm measured after 8 days by ExMAC assay relative to untreated control. In kind it is functional. Also on record: scale not given: the % may be the effect or the level left.
The subject of assay [16] is Eimeria maxima. The assay is described as follows: Anticoccidial activity against Eimeria maxima in chickens assessed as reduction of oocysts at 3 ppm measured after 8 days by ExMAC assay relative to untreated control. The assay is classed as functional. Also on record: scale not given: the % may be the effect or the level left.
The test system of assay [17] is Eimeria tenella. Description: Anticoccidial activity against Eimeria tenella in chickens assessed as reduction of oocysts at 12 ppm measured after 8 days by ExMAC assay relative to untreated control. The assay is classed as functional. Also on record: scale not given: the % may be the effect or the level left.
The subject of assay [18] is Eimeria mitis. Description: Anticoccidial activity against Eimeria mitis in chickens assessed as reduction of oocysts at 12 ppm measured after 8 days by ExMAC assay relative to untreated control. The assay is classed as functional. Also on record: scale not given: the % may be the effect or the level left.
In assay [19] the test system is Eimeria mitis. The assay is described as follows: Anticoccidial activity against Eimeria mitis in chickens assessed as reduction of oocysts at 3 ppm measured after 8 days by ExMAC assay relative to untreated control. Also on record: scale not given: the % may be the effect or the level left. The assay is classed as functional.
The test system of assay [20] is Eimeria acervulina. The assay is described as follows: Anticoccidial activity against Eimeria acervulina in chickens assessed as reduction of oocysts at 12 ppm measured after 8 days by ExMAC assay relative to untreated control. In kind it is functional. Also on record: scale not given: the % may be the effect or the level left.
The test system of assay [21] is Eimeria tenella. Description: Anticoccidial activity against Eimeria tenella in chickens assessed as reduction of oocysts at 3 ppm measured after 8 days by ExMAC assay relative to untreated control. In kind it is functional. Also on record: scale not given: the % may be the effect or the level left.
Assay [22] has as its system Eimeria maxima. Description: Anticoccidial activity against Eimeria maxima in chickens assessed as reduction of oocysts at 6 ppm measured after 8 days by ExMAC assay relative to untreated control. The assay is classed as functional. Also on record: scale not given: the % may be the effect or the level left.
Assay [23] deals with Eimeria acervulina. Description: Anticoccidial activity against Eimeria acervulina in chickens assessed as reduction of oocysts at 6 ppm measured after 8 days by ExMAC assay relative to untreated control. The assay is classed as functional. Also on record: scale not given: the % may be the effect or the level left.
Assay [24] relates to Eimeria mitis. Description: Anticoccidial activity against Eimeria mitis in chickens assessed as reduction of oocysts at 6 ppm measured after 8 days by ExMAC assay relative to untreated control. The assay is classed as functional. Also on record: scale not given: the % may be the effect or the level left.
Assay [25] relates to Eimeria acervulina. Description: Anticoccidial activity against Eimeria acervulina in chickens assessed as reduction of oocysts at 3 ppm measured after 8 days by ExMAC assay relative to untreated control. The assay is classed as functional. Also on record: scale not given: the % may be the effect or the level left.
Assay [26] relates to Eimeria tenella. The assay is described as follows: Anticoccidial activity against Eimeria tenella in chickens assessed as reduction of oocysts at 3.1 ppm measured after 8 days by ExMAC assay relative to untreated control. The assay is classed as functional. Also on record: scale not given: the % may be the effect or the level left.
Assay [27] relates to Eimeria acervulina. Description: Anticoccidial activity against Eimeria acervulina in chickens assessed as reduction of oocysts at 6.25 ppm measured after 8 days by ExMAC assay relative to untreated control. In kind it is functional. Also on record: scale not given: the % may be the effect or the level left.
For assay [28], the system named is Eimeria mitis. The assay is described as follows: Anticoccidial activity against Eimeria mitis in chickens assessed as reduction of oocysts at 6.25 ppm measured after 8 days by ExMAC assay relative to untreated control. In kind it is functional. Also on record: scale not given: the % may be the effect or the level left.
Assay [29] deals with Eimeria acervulina. Description: Anticoccidial activity against Eimeria acervulina in chickens assessed as reduction of oocysts at 3.1 ppm measured after 8 days by ExMAC assay relative to untreated control. In kind it is functional. Also on record: scale not given: the % may be the effect or the level left.
The subject of assay [30] is Eimeria tenella. The assay is described as follows: Anticoccidial activity against Eimeria tenella in chickens assessed as reduction of oocysts at 6.25 ppm measured after 8 days by ExMAC assay relative to untreated control. Also on record: scale not given: the % may be the effect or the level left. The assay is classed as functional.
The subject of assay [31] is Eimeria mitis. The assay is described as follows: Anticoccidial activity against Eimeria mitis in chickens assessed as reduction of oocysts at 3.1 ppm measured after 8 days by ExMAC assay relative to untreated control. The assay is classed as functional. Also on record: scale not given: the % may be the effect or the level left.
The test system of assay [32] is Eimeria maxima. The assay is described as follows: Anticoccidial activity against Eimeria maxima in chickens assessed as reduction of oocysts at 3.1 ppm measured after 8 days by ExMAC assay relative to untreated control. Also on record: scale not given: the % may be the effect or the level left. In kind it is functional.
Assay [33] deals with Eimeria maxima. The assay is described as follows: Anticoccidial activity against Eimeria maxima in chickens assessed as reduction of oocysts at 6.25 ppm measured after 8 days by ExMAC assay relative to untreated control. In kind it is functional. Also on record: scale not given: the % may be the effect or the level left.

Sequence of cGMP-dependent protein kinase (Q8MMZ8 whole entry): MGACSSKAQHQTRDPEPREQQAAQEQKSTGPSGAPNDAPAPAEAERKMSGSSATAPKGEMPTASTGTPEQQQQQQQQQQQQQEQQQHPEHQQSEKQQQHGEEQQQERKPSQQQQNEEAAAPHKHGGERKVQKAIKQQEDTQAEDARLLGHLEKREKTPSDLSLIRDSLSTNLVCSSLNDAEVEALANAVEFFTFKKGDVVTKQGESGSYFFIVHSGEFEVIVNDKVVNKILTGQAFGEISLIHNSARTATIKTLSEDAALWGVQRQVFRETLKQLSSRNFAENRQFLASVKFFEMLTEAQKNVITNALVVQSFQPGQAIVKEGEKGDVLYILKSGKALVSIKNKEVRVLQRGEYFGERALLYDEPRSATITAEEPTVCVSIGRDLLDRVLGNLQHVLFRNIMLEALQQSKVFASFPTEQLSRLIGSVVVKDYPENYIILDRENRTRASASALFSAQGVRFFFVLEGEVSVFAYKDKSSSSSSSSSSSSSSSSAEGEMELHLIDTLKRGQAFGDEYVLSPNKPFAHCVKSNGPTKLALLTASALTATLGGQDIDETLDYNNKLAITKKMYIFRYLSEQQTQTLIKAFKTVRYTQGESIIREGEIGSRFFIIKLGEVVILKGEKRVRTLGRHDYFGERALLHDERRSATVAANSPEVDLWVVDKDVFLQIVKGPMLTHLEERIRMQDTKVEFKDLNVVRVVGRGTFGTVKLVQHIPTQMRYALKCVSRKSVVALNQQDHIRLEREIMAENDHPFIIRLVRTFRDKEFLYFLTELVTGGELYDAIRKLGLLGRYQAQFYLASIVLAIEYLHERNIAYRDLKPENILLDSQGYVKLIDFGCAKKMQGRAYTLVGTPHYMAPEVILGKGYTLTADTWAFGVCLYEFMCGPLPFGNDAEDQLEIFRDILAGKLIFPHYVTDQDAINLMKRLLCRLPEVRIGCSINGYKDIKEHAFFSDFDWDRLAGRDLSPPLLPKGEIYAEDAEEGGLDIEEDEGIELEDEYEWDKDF

In general, IC50 refers to the concentration that inhibits the measured activity by half. Take `CC(c1ccn2c(-c3ccnc(N)n3)c(-c3ccc(F)cc3)nc2c1)N(C)C` (single isomer, unassigned; enantiomer B): the Activity with Eimeria maxima [1] is 100%; in the assay with Eimeria maxima [2], 100%; in the assay with Eimeria acervulina [3] it was 100%; in the assay with Eimeria mitis [4] it was less than 50%; in the assay with Eimeria tenella [5], 50%; in the assay on Eimeria tenella [6] it was 80%. The Activity with Eimeria mitis [7], in the assay on Eimeria mitis [8], in the assay with Eimeria tenella [9], in the assay with Eimeria maxima [10], in the assay with Eimeria acervulina [11] and in the assay on Eimeria acervulina [13] was 80% throughout. In addition, the IC50 in [12] amounted to 0.067 nM.

Take `CC(C)(N)c1ccn2c(-c3ccnc(N)n3)c(-c3ccc(F)cc3)nc2c1`: the Activity in the assay on Eimeria maxima [14] is reported as 100%; in the assay with Eimeria tenella [15] it was 80%; in the assay with Eimeria maxima [16], 80%; in the assay with Eimeria tenella [17] it was 100%; in the assay with Eimeria mitis [18], less than 50%; in the assay with Eimeria mitis [19] it was less than 50%. Moreover, the Activity was 80% with Eimeria acervulina [20]; less than 50% in the assay on Eimeria tenella [21]; 80% in the assay with Eimeria maxima [22]; 80% with Eimeria acervulina [23]; less than 50% with Eimeria mitis [24]; 50% in the assay on Eimeria acervulina [25]. Besides, in [12], the 50% inhibitory concentration (IC50) was 0.145 nM.

`CC(c1ccn2c(-c3ccnc(N)n3)c(-c3ccc(F)cc3)nc2c1)N(C)C` (stereo not given): the Activity was 100% in the assay on Eimeria tenella [26]; 100% with Eimeria acervulina [27]; 100% with Eimeria mitis [28]; 80% in the assay with Eimeria acervulina [29]; 100% in the assay with Eimeria tenella [30]; 80% with Eimeria mitis [31]. Moreover, the figures for the Activity with Eimeria maxima [32] and in the assay on Eimeria maxima [33] were 100% and less than 50%, respectively. The IC50 in assay [12] is 0.09 nM.
